Patent US8163728B2, “Pyrazoles” (Hoffmann-La Roche Inc., priority 2009, dated 2012)

These compounds were tested against T1, GABA A α5 (Homo sapiens, UniProt P18507+P31644) (assay: [3H]flumazenil competition binding, human GABA A α5β3γ2 receptors in HEK293 cell membranes). Conditions: human receptor α5β3γ2 transiently transfected in HEK293; 0.5 nM [3H]flumazenil; 1 hour at 4° C.; means of two determinations; read-out: hKi GABA A α5.
T1 construct: expressed in transfected cells; host or cells: HEK293 cells, transiently transfected; membranes prepared from cell pellets
Method: The affinity of compounds at GABA A receptor subtypes was measured by competition for [3H]flumazenil (85 Ci/mmol; Roche) binding to HEK293 cells expressing rat (stably transfected) or human (transiently transfected) receptors of composition α1β3γ2, α2β3γ2, α3β3γ2 and α5β3γ2.
Cell pellets were suspended in Krebs-tris buffer (4.8 mM KCl, 1.2 mM CaCl2, 1.2 mM MgCl2, 120 mM NaCl, 15 mM Tris; pH 7.5; binding assay buffer), homogenized by polytron for ca. 20 sec on ice and centrifuged for 60 min at 4° C. (50000 g; Sorvall, rotor: SM24=20000 rpm). The cell pellets were re-suspended in Krebs-tris buffer and homogenized by polytron for ca. 15 sec on ice. Protein was measured (Bradford method, Bio-Rad) and aliquots of 1 mL were prepared and stored at −80° C.
Assays were incubated to equilibrium for 1 hour at 4° C. and harvested onto GF/C uni-filters (Packard) by filtration using a Packard harvester and washing with ice-cold wash buffer (50 mM Tris; pH 7.5). After drying, filter-retained radioactivity was detected by liquid scintillation counting. Ki values were calculated using Excel-Fit (Microsoft) and are the means of two determinations.

Row | Structure (SMILES) | Ki
1 | Cc1onc(-c2ccc(F)cc2)c1COc1cc(C(=O)NCC(O)C(F)(F)F)n(C)n1 (single isomer, unassigned; (-)) [Example 68, (−)-5-[3-(4-Fluoro-phenyl)-5-methyl-isoxazol-4-ylmethoxy]-2-methyl-2H-pyrazole-3-carboxylic acid ((R or S)-3,3,3-trifluoro-2-hydroxy-propyl)-amide or enantiomer] | 5.3 nM
2 | CCC(CO)NC(=O)c1cc(OCc2c(-c3ccc(F)cc3)noc2C)nn1C (single isomer, unassigned; (-)) [Example 69, (−)-5-[3-(4-Fluoro-phenyl)-5-methyl-isoxazol-4-ylmethoxy]-2-methyl-2H-pyrazole-3-carboxylic acid ((R or S)-1-hydroxymethyl-propyl)-amide] | 3.5 nM
3 | Cc1onc(-c2ccccn2)c1COc1cc(C(=O)NC(C)CO)n(C)n1 (stereo in doubt) [Example 80, 2-Methyl-5-(5-methyl-3-pyridin-2-yl-isoxazol-4-ylmethoxy)-2H-pyrazole-3-carboxylic acid ((S)-2-hydroxy-1-methyl-ethyl)-amide] | 23.5 nM
4 | CC(NC(=O)c1cc(OCc2c(-c3ccc(Cl)cc3)noc2CO)nn1C)C(F)(F)F (stereo in doubt) [Example 106, 5-[3-(4-Chloro-phenyl)-5-hydroxymethyl-isoxazol-4-ylmethoxy]-2-methyl-2H-pyrazole-3-carboxylic acid ((S)-2,2,2-trifluoro-1-methyl-ethyl)-amide] | 8.1 nM
5 | Cc1onc(-c2ccccn2)c1COc1cc(C(=O)NC(C)CO)nn1C (stereo in doubt) [Example 114, 1-Methyl-5-(5-methyl-3-pyridin-2-yl-isoxazol-4-ylmethoxy)-1H-pyrazole-3-carboxylic acid ((S)-2-hydroxy-1-methyl-ethyl)-amide] | 16.2 nM
6 | Cc1onc(-c2ccccc2)c1COc1cc(C(=O)N2CCOCC2)[nH]n1 [Example 1, [5-(5-Methyl-3-phenyl-isoxazol-4-ylmethoxy)-2H-pyrazol-3-yl]morpholin-4-yl-methanone] | 41.3 nM
7 | Cc1onc(-c2ccccc2)c1COc1cc(C(=O)NC(C)C)[nH]n1 [Example 2, 5-(5-Methyl-3-phenyl-isoxazol-4-ylmethoxy)-2H-pyrazole-3-carboxylic acid isopropylamide] | 32.4 nM
8 | Cc1onc(-c2ccccc2)c1COc1cc(C(=O)NC2CCOCC2)[nH]n1 [Example 3, 5-(5-Methyl-3-phenyl-isoxazol-4-ylmethoxy)-2H-pyrazole-3-carboxylic acid (tetrahydro-pyran-4-yl)-amide] | 3.1 nM
9 | Cc1onc(-c2ccccc2)c1COc1cc(C(=O)NN(C)C)[nH]n1 [Example 5, 5-(5-Methyl-3-phenyl-isoxazol-4-ylmethoxy)-2H-pyrazole-3-carboxylic acid N′,N′-dimethyl-hydrazide] | 14.6 nM
10 | Cc1onc(-c2ccccc2)c1COc1cc(C(=O)NCCO)[nH]n1 [Example 6, 5-(5-Methyl-3-phenyl-isoxazol-4-ylmethoxy)-2H-pyrazole-3-carboxylic acid (2-hydroxy-ethyl)-amide] | 17.5 nM
11 | Cc1onc(-c2ccccc2)c1COc1cc(C(N)=O)[nH]n1 [Example 7, 5-(5-Methyl-3-phenyl-isoxazol-4-ylmethoxy)-2H-pyrazole-3-carboxylic acid amide] | 36.3 nM
12 | Cc1onc(-c2ccc(F)cc2)c1COc1cc(C(=O)NN2CCOCC2)[nH]n1 [Example 8, 5-[3-(4-Fluoro-phenyl)-5-methyl-isoxazol-4-ylmethoxy]-2H-pyrazole-3-carboxylic acid morpholin-4-ylamide] | 1.8 nM
13 | Cc1onc(-c2ccc(F)cc2)c1COc1cc(C(=O)NN2CCCC2)[nH]n1 [Example 10, 5-[3-(4-Fluoro-phenyl)-5-methyl-isoxazol-4-ylmethoxy]-2H-pyrazole-3-carboxylic acid pyrrolidin-1-ylamide] | 3.8 nM
14 | Cc1onc(-c2ccc(F)cc2)c1COc1cc(C(=O)NN(C)C)[nH]n1 [Example 11, 5-[3-(4-Fluoro-phenyl)-5-methyl-isoxazol-4-ylmethoxy]-2H-pyrazole-3-carboxylic acid N′,N′-dimethyl-hydrazide] | 4.9 nM
15 | Cc1onc(-c2ccc(F)cc2)c1COc1cc(C(=O)NC(C)C)[nH]n1 [Example 12, 5-[3-(4-Fluoro-phenyl)-5-methyl-isoxazol-4-ylmethoxy]-2H-pyrazole-3-carboxylic acid isopropylamide] | 2.3 nM
16 | Cc1onc(-c2ccc(F)cc2)c1COc1cc(C(=O)NC2CCOCC2)[nH]n1 [Example 13, 5-[3-(4-Fluoro-phenyl)-5-methyl-isoxazol-4-ylmethoxy]-2H-pyrazole-3-carboxylic acid (tetrahydro-pyran-4-yl)-amide] | 0.5 nM

Row | Structure (SMILES) | Ki
17 | Cc1onc(-c2ccccn2)c1COc1cc(C(=O)NC(C)C)n[nH]1 [Example 14, 5-(5-Methyl-3-pyridin-2-yl-isoxazol-4-ylmethoxy)-1H-pyrazole-3-carboxylic acid isopropylamide] | 9.3 nM
18 | Cc1onc(-c2ccccn2)c1COc1cc(C(=O)NC2CCOCC2)n[nH]1 [Example 15, 5-(5-Methyl-3-pyridin-2-yl-isoxazol-4-ylmethoxy)-1H-pyrazole-3-carboxylic acid (tetrahydropyran-4-yl)-amide] | 2.5 nM
19 | Cc1onc(-c2ccccn2)c1COc1cc(C(=O)N[C@@H](C)CO)n[nH]1 [Example 16, 5-(5-Methyl-3-pyridin-2-yl-isoxazol-4-ylmethoxy)-1H-pyrazole-3-carboxylic acid ((S)-2-hydroxy-1-methyl-ethyl)-amide] | 11.1 nM
20 | Cc1onc(-c2ccc(F)cn2)c1COc1cc(C(=O)NCC(F)(F)F)[nH]n1 [Example 17, 5-[3-(5-Fluoro-pyridin-2-yl)-5-methyl-isoxazol-4-ylmethoxy]-2H-pyrazole-3-carboxylic acid (2,2,2-trifluoro-ethyl)-amide] | 1.2 nM
21 | Cc1onc(-c2ccc(F)cn2)c1COc1cc(C(=O)NC(C)(C)C)[nH]n1 [Example 19, 5-[3-(5-Fluoro-pyridin-2-yl)-5-methyl-isoxazol-4-ylmethoxy]-2H-pyrazole-3-carboxylic acid tert-butylamide] | 17.8 nM
22 | Cc1onc(-c2ccc(F)cn2)c1COc1cc(C(=O)NCCO)[nH]n1 [Example 20, 5-[3-(5-Fluoro-pyridin-2-yl)-5-methyl-isoxazol-4-ylmethoxy]-2H-pyrazole-3-carboxylic acid (2-hydroxy-ethyl)-amide] | 4 nM
23 | Cc1onc(-c2ccc(F)cn2)c1COc1cc(C(=O)NC(C)C)[nH]n1 [Example 21, 5-[3-(5-Fluoro-pyridin-2-yl)-5-methyl-isoxazol-4-ylmethoxy]-2H-pyrazole-3-carboxylic acid isopropylamide] | 2.5 nM
24 | Cc1onc(-c2ccc(F)cn2)c1COc1cc(C(=O)NN(C)C)[nH]n1 [Example 22, 5-[3-(5-Fluoro-pyridin-2-yl)-5-methyl-isoxazol-4-ylmethoxy]-2H-pyrazole-3-carboxylic acid N′,N′-dimethyl-hydrazide] | 6.7 nM
25 | Cc1onc(-c2ccc(F)cn2)c1COc1cc(C(=O)NN2CCOCC2)[nH]n1 [Example 23, 5-[3-(5-Fluoro-pyridin-2-yl)-5-methyl-isoxazol-4-ylmethoxy]-2H-pyrazole-3-carboxylic acid morpholin-4-ylamide] | 1.9 nM
26 | Cc1onc(-c2ccc(F)cn2)c1COc1cc(C(=O)NN2CCCC2)[nH]n1 [Example 24, 5-[3-(5-Fluoro-pyridin-2-yl)-5-methyl-isoxazol-4-ylmethoxy]-2H-pyrazole-3-carboxylic acid pyrrolidin-1-ylamide] | 3.5 nM
27 | O=C(NN1CCOCC1)c1cc(OCc2conc2-c2ccc(F)cn2)n[nH]1 [Example 25, 5-[3-(5-Fluoro-pyridin-2-yl)-isoxazol-4-ylmethoxy]-2H-pyrazole-3-carboxylic acid morpholin-4-ylamide] | 13.6 nM
28 | CCCCc1noc(C)c1COc1cc(C(=O)NC2CCOCC2)[nH]n1 [Example 26, 5-(3-Butyl-5-methyl-isoxazol-4-ylmethoxy)-2H-pyrazole-3-carboxylic acid (tetrahydropyran-4-yl)-amide] | 2.3 nM
29 | CCCCc1noc(C)c1COc1cc(C(=O)N[C@@H](C)CO)[nH]n1 [Example 27, 5-(3-Butyl-5-methyl-isoxazol-4-ylmethoxy)-2H-pyrazole-3-carboxylic acid ((S)-2-hydroxy-1-methyl-ethyl)-amide] | 7.8 nM
30 | CCCCc1noc(C)c1COc1cc(C(=O)NC(CO)CO)[nH]n1 [Example 29, 5-(3-Butyl-5-methyl-isoxazol-4-ylmethoxy)-2H-pyrazole-3-carboxylic acid (2-hydroxy-1-hydroxymethyl-ethyl)-amide] | 10.4 nM
31 | CCCCc1noc(C)c1COc1cc(C(=O)NCC(F)(F)F)[nH]n1 [Example 31, 5-(3-Butyl-5-methyl-isoxazol-4-ylmethoxy)-2H-pyrazole-3-carboxylic acid (2,2,2-trifluoro-ethyl)-amide] | 6.4 nM
32 | CCCCc1noc(C)c1COc1cc(C(=O)NC(C)C)[nH]n1 [Example 32, 5-(3-Butyl-5-methyl-isoxazol-4-ylmethoxy)-2H-pyrazole-3-carboxylic acid isopropylamide] | 15.7 nM
